Measurements taken from US20230398130A1, “METHODS AND COMPOSITIONS FOR DIFFERENTIATING STEM CELLS” (Massachusetts Institute of Technology, priority 2020, published 2023).

Key:
ISC-enriched organoids [1] = assay: Secondary (validation) screen, 384-well 2.5-D, ENR+CD 6 days, n=8 wells, vs ENR+CD+DMSO control: carbachol-induced lysozyme secretion (LYZ.S); type: cell-based, murine
Protocol: (§1) Drugs were tested at a narrowed dose range around each treatment's identified optimal dose from the primary screen (4× below, 2× above and below).
(§2) High-throughput screening.
(§3) Secondary lysozyme secretion assay screen. Confirmatory secondary screening with primary hits was performed using the above 384-well plate method. The screen was conducted with 4-plate replicates with a base media of ENR+CD. Media was supplemented with compound at day 0 and day 3 (n=8 well replicates per dose) at four different doses: two-fold above, two-fold below, and four-fold below the optimal final dose for each respective treatment. Additionally, each plate carried a large number of ENR+DMSO or ENR+CD+DMSO (vehicle) control wells (n=100 for ATP, and n=25 for LYZ.NS and LYZ.S) for robust normalization. ATP, non-stimulated lysozyme activity and CCh-stimulated lysozyme activity was again measured and the collected data was again processed in a custom R-script, per primary screen with slight modification. Values were log10 transformed, and a plate-wise FC was calculated for each well based on the median value of ENR+CD+DMSO (vehicle) control wells to normalize plate to plate variability.

ISC-enriched organoids [2] = assay: Secondary (validation) screen, 384-well 2.5-D, ENR+CD 6 days, n=8 wells, vs ENR+CD+DMSO control: basal lysozyme secretion (LYZ.NS); type: cell-based, murine
Protocol: as §1, §2, §3

ISC-enriched organoids [3] = assay: Primary screen, 384-well 2.5-D organoid differentiation (ENR+CD, 6 days, Target Selective Inhibitor Library, vs whole-plate median): ATP (CellTiter-Glo 3D, CTG); settings: standard z score of FC
ISC-enriched organoids [4] = assay: Secondary (validation) screen, 384-well 2.5-D, ENR+CD 6 days, n=8 wells, vs ENR+CD+DMSO control: ATP (CTG); type: cell-based, murine
Protocol: as §1, §2, §3

## COc1cc(Nc2c(C#N)cnc3cc(OCCCN4CCN(C)CC4)c(OC)cc23)c(Cl)cc1Cl [Bosutinib (SKI-606), Bosutinib]
ISC-enriched organoids [1]; Dose 0.02 uM
  repSSMD.LYZ.S: 1.147
ISC-enriched organoids [1]; Dose 0.04 uM
  Z.LYZ.S: −0.663
  repSSMD.LYZ.S: −0.977
ISC-enriched organoids [1]; dose 0.08 uM
  Z.LYZ.S: −0.554
  repSSMD.LYZ.S: −0.892
ISC-enriched organoids [2]; Dose 0.02 uM
  Z.LYZ.NS: 1.061
  repSSMD.LYZ.NS: 1.620
ISC-enriched organoids [2]; Dose 0.04 uM
  Z.LYZ.NS: −0.535
  repSSMD.LYZ.NS: −0.666
ISC-enriched organoids [2]; dose 0.08 uM
  Z.LYZ.NS: −0.562
  repSSMD.LYZ.NS: −0.903
ISC-enriched organoids [3]; primary screen, dose 0.08 uM
  Z.CTG: 1.499
ISC-enriched organoids [3]; primary screen, dose 0.40 uM
  Z.CTG: 0.720
ISC-enriched organoids [3]; primary screen, dose 2.00 uM
  Z.CTG: −0.405
ISC-enriched organoids [3]; primary screen, dose 10.00 uM
  Z.CTG: −1.595
ISC-enriched organoids [4]; Dose 0.02 uM
  Z.CTG: 1.944
  repSSMD.CTG: 1.251
ISC-enriched organoids [4]; Dose 0.04 uM
  Z.CTG: 1.254
  repSSMD.CTG: 0.876
ISC-enriched organoids [4]; dose 0.08 uM
  Z.CTG: 0.735
  repSSMD.CTG: 0.584

## CCOc1ccc(Cc2cc([C@@H]3O[C@H](CO)[C@@H](O)[C@H](O)[C@H]3O)ccc2Cl)cc1 [Dapagliflozin]
ISC-enriched organoids [1]; Dose 0.02 uM
  Z.LYZ.S: −0.144
  repSSMD.LYZ.S: −0.225
ISC-enriched organoids [1]; Dose 0.04 uM
  Z.LYZ.S: 0.528
  repSSMD.LYZ.S: 0.751
ISC-enriched organoids [1]; dose 0.08 uM
  Z.LYZ.S: 0.530
  repSSMD.LYZ.S: 0.879
ISC-enriched organoids [2]; Dose 0.02 uM
  Z.LYZ.NS: 0.173
  repSSMD.LYZ.NS: 0.231
ISC-enriched organoids [2]; Dose 0.04 uM
  Z.LYZ.NS: 1.197
  repSSMD.LYZ.NS: 1.267
ISC-enriched organoids [2]; dose 0.08 uM
  Z.LYZ.NS: 0.462
  repSSMD.LYZ.NS: 0.537
ISC-enriched organoids [3]; Dose 0.08 uM
  Z.CTG: 0.980
ISC-enriched organoids [3]; Dose 0.40 uM
  Z.CTG: 0.607
ISC-enriched organoids [3]; Dose 2.00 uM
  Z.CTG: 0.699
ISC-enriched organoids [3]; Dose 10.00 uM
  Z.CTG: 0.719
ISC-enriched organoids [4]; Dose 0.02 uM
  Z.CTG: 0.770
  repSSMD.CTG: 0.643
ISC-enriched organoids [4]; Dose 0.04 uM
  Z.CTG: 1.569
  repSSMD.CTG: 0.979
ISC-enriched organoids [4]; dose 0.08 uM
  Z.CTG: 1.346
  repSSMD.CTG: 0.777

## CC(C)(C)NC(=O)[C@H]1CC[C@H]2[C@@H]3CC[C@H]4NC(=O)C=C[C@]4(C)[C@H]3CC[C@]12C [Finasteride]
ISC-enriched organoids [1]; Dose 0.02 uM
  Z.LYZ.S: −0.147
  repSSMD.LYZ.S: −0.197
ISC-enriched organoids [1]; Dose 0.04 uM
  Z.LYZ.S: −1.996
  repSSMD.LYZ.S: −3.825
ISC-enriched organoids [1]; dose 0.08 uM
  Z.LYZ.S: −1.859
  repSSMD.LYZ.S: −2.574
ISC-enriched organoids [2]; Dose 0.02 uM
  Z.LYZ.NS: 0.445
  repSSMD.LYZ.NS: 0.362
ISC-enriched organoids [2]; Dose 0.04 uM
  Z.LYZ.NS: −1.510
  repSSMD.LYZ.NS: −2.570
ISC-enriched organoids [2]; dose 0.08 uM
  Z.LYZ.NS: −1.522
  repSSMD.LYZ.NS: −2.177
ISC-enriched organoids [3]; Dose 0.08 uM
  Z.CTG: 0.360
ISC-enriched organoids [3]; Dose 0.40 uM
  Z.CTG: −0.092
ISC-enriched organoids [3]; Dose 2.00 uM
  Z.CTG: 0.174
ISC-enriched organoids [3]; Dose 10.00 uM
  Z.CTG: −0.097
ISC-enriched organoids [4]; Dose 0.02 uM
  Z.CTG: 0.596
  repSSMD.CTG: 0.358
ISC-enriched organoids [4]; Dose 0.04 uM
  Z.CTG: −1.623
  repSSMD.CTG: −0.994
ISC-enriched organoids [4]; dose 0.08 uM
  Z.CTG: −0.099
  repSSMD.CTG: −0.083

## CCc1c(C(=O)C(N)=O)c2c(OCC(=O)O)cccc2n1Cc1ccccc1 [Varespladib (LY315920), Varespladib]
ISC-enriched organoids [1]; Dose 0.02 uM
  Z.LYZ.S: −1.057
  repSSMD.LYZ.S: −1.652
ISC-enriched organoids [1]; Dose 0.04 uM
  Z.LYZ.S: −0.339
  repSSMD.LYZ.S: −0.641
ISC-enriched organoids [1]; dose 0.08 uM
  Z.LYZ.S: 0.497
  repSSMD.LYZ.S: 0.838
ISC-enriched organoids [2]; Dose 0.02 uM
  Z.LYZ.NS: −0.723
  repSSMD.LYZ.NS: −0.763
ISC-enriched organoids [2]; Dose 0.04 uM
  Z.LYZ.NS: 0.123
  repSSMD.LYZ.NS: 0.213
ISC-enriched organoids [2]; dose 0.08 uM
  Z.LYZ.NS: 0.718
  repSSMD.LYZ.NS: 1.251
ISC-enriched organoids [4]; Dose 0.02 uM
  Z.CTG: 0.244
  repSSMD.CTG: 0.187
ISC-enriched organoids [4]; Dose 0.04 uM
  Z.CTG: 1.019
  repSSMD.CTG: 0.518
ISC-enriched organoids [4]; dose 0.08 uM
  Z.CTG: 1.862
  repSSMD.CTG: 1.114
